# Measurements from BindingDB's records for doi:10.1016/j.bmc.2016.08.020 (University of British Columbia, 2016).
# Test: Activation of p75NTR in mouse hippocampal neurons assessed as increase in cell survival after 48 hrs by MTT assay
structure (smiles),measurement,value
CCC(C)C(N)C(=O)NCCN1CCOCC1 (stereo unspecified),EC50,0.02 µM
